Data taken from ChEMBL document CHEMBL5107958, “Phosphoramidate Prodrugs Continue to Deliver, The Journey of Remdesivir (GS-5734) from RSV to SARS-CoV-2” (ACS Med Chem Lett, 2022).

Columns and labels:
SARS-CoV [1] = assay: Antiviral activity against SARS-CoV infected in HAE cells assessed as reduction in viral replication at MOI of 0.5 preincubated for 3 hrs followed by virus removal measured after 48 hrs by Hoechst 33258 staining based assay; format: functional, organism-based; details: Severe acute respiratory syndrome-related coronavirus
[2] = Prodrug conversion in ferret lung assessed as triphosphate metabolite formation at 10 mg/kg, iv measured after 24 hrs; format: ADME, organism-based, Mustela putorius furo; details: in vivo
SARS-CoV-2 [3] = assay: Antiviral activity against SARS-CoV-2 infected in human Huh-7 cells assessed as reduction in virus-induced cytopathic effect at MOI of 0.0037 measured after 4 days by MTS assay; format: functional, organism-based; details: Severe acute respiratory syndrome coronavirus 2, Huh-7, 96 h
SARS-CoV-2 [4] = assay: (§1) Potency index, ratio of EC50 of GS-441524 to EC50 of test compound for antiviral activity SARS-CoV-2 infected in human Calu-3 2B4 cells assessed as reduction in viral replication at MOI of 0.01 preincubated for 2 hrs followed by viral infection for 30 mins and subsequent virus removal and addition of medium containing compound measured after 72 hrs by RT-qPCR analysis; format: functional, Severe acute respiratory syndrome coronavirus 2; details: time 74.5 hrs
SARS-CoV-2 [5] = assay: Antiviral activity against SARS-CoV-2 infected in human A549 cells expressing hACE2 assessed as reduction in viral replication at MOI of 0.025 incubated for 48 hrs by luciferase based assay; format: functional, organism-based; details: Severe acute respiratory syndrome coronavirus 2, A549, 48 h
Ebolavirus [6] = assay: Potency index, ratio of EC50 of GS-441524 to EC50 of test compound for antiviral activity against Ebola infected in human HeLa cells assessed as reduction in viral replication; format: functional
[7] = test system: Middle East respiratory syndrome-related coronavirus; assay: Potency index, ratio of EC50 of GS-441524 to EC50 of test compound for antiviral activity against MERS-CoV infected in HAE cells assessed as reduction in viral replication at MOI of 0.5 incubated for 3 hrs followed by virus removal measured after 48 hrs by Hoechst 33258 staining based assay; format: functional; details: time 51 hrs
Marburgvirus = assay: Antiviral activity against MARV Rec. Bat371-GFP infected in human Huh-7 cells assessed as reduction in viral replication incubated for 48 to 144 hrs by fluorescence based assay; format: functional, organism-based; details: Orthomarburgvirus
SARS-CoV-2 [8] = assay: Antiviral activity against SARS-CoV-2 infected in human PSC-derived lung epithelial cells assessed as reduction in viral replication; format: functional, organism-based; details: Severe acute respiratory syndrome coronavirus 2, Epithelial cell
Ebolavirus [9] = assay: Antiviral activity against Ebola infected in human HeLa cells assessed as reduction in viral replication; format: functional, organism-based; details: Orthoebolavirus
Ebolavirus [10] = assay: Antiviral activity against Ebola infected in human macrophages assessed as reduction in viral replication; format: functional, organism-based; details: Orthoebolavirus, Macrophage
[11] = Clearance in ferret at 10 mg/kg, iv; format: ADME, organism-based, Mustela putorius furo; details: in vivo
SARS-CoV-2 [12] = assay: Potency index, ratio of EC50 of GS-441524 to EC50 of test compound for antiviral activity against SARS-CoV-2 infected in African green monkey Vero E6 cells assessed as reduction in viral replication; format: functional, Severe acute respiratory syndrome coronavirus 2
SARS-CoV-2 [13] = assay: Potency index, ratio of EC50 of GS-441524 to EC50 of test compound for antiviral activity against SARS-CoV-2 infected in human Caco-2 cells assessed as reduction in viral replication at MOI of 0.01 measured after 72 hrs by qRT-PCR analysis; format: functional, Severe acute respiratory syndrome coronavirus 2
SARS-CoV-2 [14] = assay: as §1, with “Antiviral” for “Potency index, ratio of EC50 of GS-441524 to EC50 of test compound for antiviral”, “activity against” for “activity”; format: functional, organism-based; details: Severe acute respiratory syndrome coronavirus 2, Calu-3 2B4
[15] = test system: Middle East respiratory syndrome-related coronavirus; assay: Antiviral activity against MERS-CoV infected in HAE cells assessed as reduction in viral replication at MOI of 0.5 incubated for 3 hrs followed by virus removal measured after 48 hrs by Hoechst 33258 staining based assay; format: functional, organism-based
SARS-CoV-2 [16] = assay: Antiviral activity against SARS-CoV-2 infected in human Caco-2 cells assessed as reduction in viral replication at MOI of 0.01 measured after 72 hrs by qRT-PCR analysis; format: functional, organism-based; details: Severe acute respiratory syndrome coronavirus 2, Caco-2, 72 h
[17] = Prodrug conversion in human assessed as AUC (0 to last) of parent nucleoside compound at 2.5 mg/kg, iv; format: ADME, organism-based; design: time 0 - last, dose 2.5 mg/kg, route iv; details: in vivo
[18] = AUC (0 to infinity) in ferret at 10 mg/kg, iv; format: ADME, organism-based, Mustela putorius furo; design: time infinity, dose 10 mg/kg, route iv; details: in vivo
Nipah virus [19] = assay: Potency index, ratio of EC50 of GS-441524 to EC50 of test compound for antiviral activity against Nipah M1999 infected in human HeLa cells assessed as reduction in viral replication incubated for 48 to 144 hrs by reporter virus assay; format: functional, Henipavirus nipahense; details: time 48-144 hrs
SARS-CoV-2 [20] = assay: Potency index, ratio of EC50 of GS-441524 to EC50 of test compound for antiviral activity against SARS-CoV-2 infected in human PSC-derived lung epithelial cells assessed as reduction in viral replication; format: functional, Severe acute respiratory syndrome coronavirus 2, PSC-derived lung epithelial cell
[21] = Half life in human at 2.5 mg/kg, iv; format: ADME, organism-based; details: in vivo
SARS-CoV [22] = assay: Potency index, ratio of EC50 of GS-441524 to EC50 of test compound for antiviral activity against SARS-CoV infected in HAE cells assessed as reduction in viral replication at MOI of 0.5 preincubated for 3 hrs followed by virus removal measured after 48 hrs by Hoechst 33258 staining based assay; format: functional, Severe acute respiratory syndrome-related coronavirus; details: time 51 hrs
Nipah virus [23] = assay: Antiviral activity against Nipah B2004 infected in human NCI-H358 cells assessed as reduction in viral replication incubated for 48 to 144 hrs by reporter virus assay; format: functional, organism-based; details: Henipavirus nipahense
Measles morbillivirus = assay: Antiviral activity against Measles Rec.rMVEZGFP(3) infected in human HeLa cells assessed as reduction in viral replication incubated for 48 to 144 hrs by fluorescence based assay; format: functional, organism-based
SARS-CoV-2 [24] = assay: Potency index, ratio of EC50 of GS-441524 to EC50 of test compound for antiviral activity against SARS-CoV-2 infected in human A549 cells expressing hACE2 assessed as reduction in viral replication at MOI of 0.025 incubated for 48 hrs by luciferase based assay; format: functional, Severe acute respiratory syndrome coronavirus 2
SARS-CoV-2 [25] = assay: Potency index, ratio of EC50 of GS-441524 to EC50 of test compound for antiviral activity against SARS-CoV-2 infected in human Calu-3 cells assessed as reduction in viral replication at MOI of 0.01 measured after 72 hrs by qRT-PCR analysis; format: functional, Severe acute respiratory syndrome coronavirus 2
Ebolavirus [26] = assay: Potency index, ratio of EC50 of GS-441524 to EC50 of test compound for antiviral activity against Ebola infected in human macrophages assessed as reduction in viral replication; format: functional, Macrophage
[27] = Prodrug conversion in Normal human bronchial epithelial cells assessed as half life of triphosphate metabolite; format: ADME, cell-based; details: normal human bronchial epithelial cell
Nipah virus [28] = assay: Potency index, ratio of EC50 of GS-441524 to EC50 of test compound for antiviral activity against Nipah B2004 infected in human NCI-H358 cells assessed as reduction in viral replication incubated for 48 to 144 hrs by reporter virus assay; format: functional, Henipavirus nipahense; details: time 48-144 hrs
[29] = Volume of distribution at steady state in human at 2.5 mg/kg, iv; format: ADME, organism-based; details: in vivo, read-out: Vdss
[30] = test system: Middle East respiratory syndrome-related coronavirus; assay: Antiviral activity against MERS-CoV infected in human Calu-3 2B4 cells assessed as reduction in viral replication at MOI of 0.08 infected for 1 hr followed by virus removal and subsequent addition of medium containing compound measured after 48 hrs post-infection by nLUC assay; format: functional, organism-based

## CCC(CC)OC(=O)[C@H](C)N[P@](=O)(OC[C@H]1O[C@@](C#N)(c2ccc3c(N)ncnn23)[C@H](O)[C@@H]1O)Oc1ccccc1
SARS-CoV [1]
  EC50: 69 nM
[2]
  Drug metabolism: 1.28 nmol/g
SARS-CoV-2 [3]
  EC50: < 1 nM
SARS-CoV-2 [4]
  Ratio: 2.2
SARS-CoV-2 [5]
  EC50: 115 nM
Ebolavirus [6]
  Ratio: >143
[7]
  Ratio: 12
Marburgvirus
  EC50: 14 nM
SARS-CoV-2 [8]
  EC50: 140 nM
Ebolavirus [9]
  EC50: 140 nM
Ebolavirus [10]
  EC50: 86 nM
[11]
  clearance: 43.3 mL/min/kg
SARS-CoV-2 [12]
  Ratio: 0.7
SARS-CoV-2 [13]
  Ratio: 80
SARS-CoV-2 [14]
  EC50: 280 nM
[15]
  EC50: 74 nM
SARS-CoV-2 [16]
  EC50: 1 nM
[17]
  AUClast: 7.5 µM·h
[18]
  AUC(0-inf): 7 µM·h
Nipah virus [19]
  Ratio: 32
SARS-CoV-2 [20]
  Ratio: 5.3
[21]
  half-life: 1 h
SARS-CoV [22]
  Ratio: 2.6
Nipah virus [23]
  EC50: 32 nM
Measles morbillivirus
  EC50: 37 nM
SARS-CoV-2 [24]
  Ratio: 7.6
SARS-CoV-2 [25]
  Ratio: 2.4
Ebolavirus [26]
  Ratio: >232
[27]
  t1/2: 14 h
Nipah virus [28]
  Ratio: 77
[29]
  Vd: 1.22 L/kg
[30]
  EC50: 69 nM
